Reference: ChEMBL document CHEMBL5518236, “Discovery of Clinical Candidate AZD5462, a Selective Oral Allosteric RXFP1 Agonist for Treatment of Heart Failure” (J Med Chem, 2024)

Columns and labels:
[1] = Octanol/water partition coefficient, logD of the compound at pH 7.4 by shake flask method; assay type: physicochemical
[2] = Metabolic stability in rat hepatocytes assessed as unbound intrinsic clearance measured per 10^6 viable cells/ml at 1 uM measured upto 120 mins by LC-MS/MS analysis; assay type: ADME, cell-based, Hepatocyte; settings: 2 h
[3] = Half life in Han Wistar rat at 0.96 micromol/kg, iv by LC-MS/MS analysis; assay type: ADME, organism-based; settings: in vivo, dose 0.96 µmol/kg
[4] = Clearance in Han Wistar rat at 0.96 micromol/kg, iv by LC-MS/MS analysis; assay type: ADME, organism-based; settings: in vivo, dose 0.96 µmol/kg
Relaxin receptor 1 [5] = target: T1, Relaxin receptor 1 (Homo sapiens, UniProt Q9HBX9)
T1 sequence (Q9HBX9 whole entry): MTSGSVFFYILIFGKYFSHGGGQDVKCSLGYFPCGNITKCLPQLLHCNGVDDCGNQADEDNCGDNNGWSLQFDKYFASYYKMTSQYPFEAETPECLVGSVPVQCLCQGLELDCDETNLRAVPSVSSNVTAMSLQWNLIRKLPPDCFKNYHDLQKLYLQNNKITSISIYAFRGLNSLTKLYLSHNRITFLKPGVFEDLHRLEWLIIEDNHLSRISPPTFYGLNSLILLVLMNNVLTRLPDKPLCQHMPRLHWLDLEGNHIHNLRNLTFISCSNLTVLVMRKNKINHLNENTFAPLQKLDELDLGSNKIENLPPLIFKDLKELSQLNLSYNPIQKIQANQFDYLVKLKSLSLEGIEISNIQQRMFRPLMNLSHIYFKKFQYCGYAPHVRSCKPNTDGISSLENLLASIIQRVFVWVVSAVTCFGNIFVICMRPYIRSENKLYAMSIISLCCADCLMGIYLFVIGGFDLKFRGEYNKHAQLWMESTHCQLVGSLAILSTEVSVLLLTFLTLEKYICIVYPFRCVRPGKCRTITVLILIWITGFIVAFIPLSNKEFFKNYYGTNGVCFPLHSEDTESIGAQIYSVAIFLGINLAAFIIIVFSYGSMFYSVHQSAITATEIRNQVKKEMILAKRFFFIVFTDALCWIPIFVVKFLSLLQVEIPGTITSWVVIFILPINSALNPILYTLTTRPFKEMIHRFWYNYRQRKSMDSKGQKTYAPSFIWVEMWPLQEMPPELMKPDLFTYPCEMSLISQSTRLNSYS
Description: Agonist activity at human RXFP1 expressed in CHO cells assessed as increase in cAMP level measured after 2 hrs by HTRF cAMP assay

[6] = Metabolic stability in human liver microsomes assessed as intrinsic clearance at 1 uM measured upto 30 mins by LC-MS/MS analysis; assay type: ADME, Microsome; settings: read-out: CLH
[7] = Oral bioavailability in Han Wistar rat at 1.9 micromol/kg by LC-MS/MS analysis; assay type: ADME, organism-based; settings: in vivo, 1.9 µmol/kg
[8] = Metabolic stability in human liver microsomes assessed as unbound intrinsic clearance at 1 uM measured upto 30 mins by LC-MS/MS analysis; assay type: ADME, Microsome; settings: 0.5 h
[9] = Metabolic stability in human hepatocytes assessed as intrinsic clearance measured per 10^6 viable cells/ml at 1 uM measured upto 120 mins by LC-MS/MS analysis; assay type: ADME, cell-based, Hepatocyte; settings: read-out: CLH
[10] = Volume of distribution at steady state in Han Wistar rat at 0.96 micromol/kg, iv by LC-MS/MS analysis; assay type: ADME, organism-based; settings: in vivo, dose 0.96 µmol/kg, read-out: Vdss
[11] = Metabolic stability in human hepatocytes assessed as unbound intrinsic clearance measured per 10^6 viable cells/ml at 1 uM measured upto 120 mins by LC-MS/MS analysis; assay type: ADME, cell-based, Hepatocyte; settings: 2 h
Relaxin receptor 1 [12] = target: T2, Relaxin receptor 1 (Mus musculus, UniProt Q6R6I7)
T2 sequence (Q6R6I7 whole entry): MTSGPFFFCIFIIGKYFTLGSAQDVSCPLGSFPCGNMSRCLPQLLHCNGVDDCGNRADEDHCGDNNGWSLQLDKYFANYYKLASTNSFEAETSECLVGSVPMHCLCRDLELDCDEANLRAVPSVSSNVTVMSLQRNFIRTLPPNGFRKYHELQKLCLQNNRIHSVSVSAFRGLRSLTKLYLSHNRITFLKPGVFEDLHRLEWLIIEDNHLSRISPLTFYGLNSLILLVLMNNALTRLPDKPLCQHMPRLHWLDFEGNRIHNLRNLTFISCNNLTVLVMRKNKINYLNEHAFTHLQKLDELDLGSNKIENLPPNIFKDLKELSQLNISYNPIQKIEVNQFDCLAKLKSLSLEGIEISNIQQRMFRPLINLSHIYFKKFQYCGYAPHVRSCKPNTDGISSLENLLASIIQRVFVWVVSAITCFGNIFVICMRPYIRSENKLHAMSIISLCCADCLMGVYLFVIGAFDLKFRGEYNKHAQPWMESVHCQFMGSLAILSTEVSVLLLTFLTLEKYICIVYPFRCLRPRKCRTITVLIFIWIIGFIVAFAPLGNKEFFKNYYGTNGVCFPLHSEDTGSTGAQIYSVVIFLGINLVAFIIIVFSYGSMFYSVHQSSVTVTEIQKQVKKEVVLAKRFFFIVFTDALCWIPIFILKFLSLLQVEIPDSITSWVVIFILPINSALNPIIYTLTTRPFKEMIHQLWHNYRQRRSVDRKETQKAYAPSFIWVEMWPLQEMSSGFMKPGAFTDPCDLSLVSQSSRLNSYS
Description: Agonist activity at mouse RXFP1 expressed in CHO-K1 cells assessed as increase in cAMP level measured after 2 hrs by HTRF cAMP assay

[13] = Protein binding in rat plasma assessed as fraction unbound at 5 uM measured after 18 hrs by LC-MS/MS analysis; assay type: ADME, cell-free; settings: read-out: PPB
[14] = Oral bioavailability in Han Wistar rat at 1.8 micromol/kg by LC-MS/MS analysis; assay type: ADME, organism-based; settings: in vivo, 1.8 µmol/kg
[15] = Clearance in Han Wistar rat at 0.90 micromol/kg, iv by LC-MS/MS analysis; assay type: ADME, organism-based; settings: in vivo, dose 0.9 µmol/kg
Relaxin receptor 1 [16] = target: T3, Relaxin receptor 1 (Rattus norvegicus, UniProt Q6R6I6); experiment: Agonist activity at rat RXFP1 expressed in CHO-K1 cells assessed as increase in cAMP level measured after 2 hrs by HTRF cAMP assay; assay type: functional, cell-based
T3 sequence (Q6R6I6 whole entry): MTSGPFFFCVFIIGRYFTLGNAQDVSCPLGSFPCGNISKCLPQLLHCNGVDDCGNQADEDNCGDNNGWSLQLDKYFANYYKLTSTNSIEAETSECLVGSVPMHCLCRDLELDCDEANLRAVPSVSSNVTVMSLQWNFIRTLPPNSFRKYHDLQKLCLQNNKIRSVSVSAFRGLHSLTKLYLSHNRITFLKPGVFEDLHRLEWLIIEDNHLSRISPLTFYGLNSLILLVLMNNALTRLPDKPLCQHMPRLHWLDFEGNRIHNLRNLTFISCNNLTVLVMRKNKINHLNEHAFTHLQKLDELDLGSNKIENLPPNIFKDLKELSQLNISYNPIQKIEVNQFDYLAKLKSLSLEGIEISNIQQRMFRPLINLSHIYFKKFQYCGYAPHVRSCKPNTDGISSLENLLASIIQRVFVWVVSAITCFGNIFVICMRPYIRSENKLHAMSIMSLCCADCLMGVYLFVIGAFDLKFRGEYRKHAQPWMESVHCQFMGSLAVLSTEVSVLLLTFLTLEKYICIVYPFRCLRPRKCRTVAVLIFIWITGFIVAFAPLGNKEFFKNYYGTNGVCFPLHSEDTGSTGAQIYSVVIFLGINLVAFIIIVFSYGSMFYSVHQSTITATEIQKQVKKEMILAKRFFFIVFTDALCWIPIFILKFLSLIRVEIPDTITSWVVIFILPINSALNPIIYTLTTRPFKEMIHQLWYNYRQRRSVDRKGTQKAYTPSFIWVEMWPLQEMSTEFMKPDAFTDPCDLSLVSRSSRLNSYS

[17] = Volume of distribution at steady state in Han Wistar rat at 0.90 micromol/kg, iv by LC-MS/MS analysis; assay type: ADME, organism-based; settings: in vivo, dose 0.9 µmol/kg, read-out: Vdss
[18] = Half life in Han Wistar rat at 0.90 micromol/kg, iv by LC-MS/MS analysis; assay type: ADME, organism-based; settings: in vivo, dose 0.9 µmol/kg
[19] = Apparent permeability across apical to basolateral side in human Caco-2 cells at pH 7.4 by LC-MS/MS analysis; assay type: ADME, cell-based; settings: Caco-2, pH 7.4

Compound `COc1cc(F)c(O[C@H]2CC[C@@H](C(=O)O)CC2)cc1C(=O)N[C@@H]1[C@H]2CC[C@H](C2)[C@@H]1C(=O)NCC(C)(C)C` has a logD [1] of 2.3, a CL free [2] of 133 µL/min and a half-life [3] of 1.8 h. For the same compound, the clearance [4] was 64 mL/min/kg, the EC50 (Relaxin receptor 1 [5]) was 1000 nM and the microsomal CLint at 1 µM [6] was 6.8 µL/min/mg. For the same compound, the bioavailability [7] was 5.6%, the CL free [8] was 8.5 µL/min/mg and the hepatocyte CLint at 1 µM [9] was 2.2 µL/min/1e6 cells. For the same compound, the Vd [10] was 0.6 L/kg, the CL free [11] was 3.4 µL/min and the EC50 (Relaxin receptor 1 [12]) was greater than 39800 nM. For the same compound, the fraction unbound at 18 h, 5 µM [13] was 0.079.
Work on `COc1cc(C#N)c(O[C@H]2CC[C@@](C)(C(=O)O)CC2)cc1C(=O)N[C@@H]1[C@H]2CC[C@H](C2)[C@@H]1C(=O)NC12CC(F)(C1)C2` yielded a bioavailability [14] of 17%, a logD [1] of 2.2 and a CL free [2] of 11 µL/min. It also gave a clearance [15] of 59 mL/min/kg, an EC50 (Relaxin receptor 1 [16]) of 10500 nM and a microsomal CLint at 1 µM [6] of 4 µL/min/mg. The CL free [8] was 4.7 µL/min/mg, the hepatocyte CLint at 1 µM [9] was 1.5 µL/min/1e6 cells and the CL free [11] was 2.6 µL/min. For the same compound, the Vd [17] was 0.96 L/kg, the half-life [18] was 1.4 h and the fraction unbound at 18 h, 5 µM [13] was 0.101.
Work on `CC1(CNC(=O)[C@H]2[C@@H]3CC[C@@H](C3)[C@H]2NC(=O)c2cc(O[C@H]3CC[C@@](C)(C(=O)O)CC3)c(C#N)cn2)CCC1` yielded a logD [1] of 2.4, an EC50 (Relaxin receptor 1 [5]) of 100 nM and a microsomal CLint at 1 µM [6] of 17 µL/min/mg. It also gave a CL free [8] of 20 µL/min/mg, a hepatocyte CLint at 1 µM [9] of 3.1 µL/min/1e6 cells and a CL free [11] of 4.2 µL/min.
Compound `COc1ccc(O[C@H]2CC[C@@](C)(C(=O)O)CC2)cc1C(=O)N[C@@H]1[C@H]2CC[C@H](C2)[C@@H]1C(=O)NCC1(C)CCC1` has a logD [1] of 2.9, an EC50 (Relaxin receptor 1 [5]) of 100 nM and a microsomal CLint at 1 µM [6] of 36 µL/min/mg. For the same compound, the CL free [8] was 46 µL/min/mg, the hepatocyte CLint at 1 µM [9] was 6.1 µL/min/1e6 cells and the CL free [11] was 10 µL/min.
Work on `COc1cc(F)c(O[C@H]2CC[C@@](CO)(C(=O)O)CC2)cc1C(=O)N[C@@H]1[C@H]2CC[C@H](C2)[C@@H]1C(=O)NCC1(C)CCC1` yielded a logD [1] of 1.5, a microsomal CLint at 1 µM [6] of less than 5.1 µL/min/mg and a Papp A→B [19] of 3.1 ×10⁻⁶ cm/s. It also gave a CL free [8] of less than 6.2 µL/min/mg, a hepatocyte CLint at 1 µM [9] of 6.2 µL/min/1e6 cells and a CL free [11] of 11 µL/min.
Compound `CC1(CNC(=O)[C@H]2[C@@H]3CC[C@@H](C3)[C@H]2NC(=O)c2cc(O[C@H]3CC[C@@](C)(C(=O)O)CC3)ccn2)CCC1` has a logD [1] of 2.5, an EC50 (Relaxin receptor 1 [5]) of 1580 nM and a microsomal CLint at 1 µM [6] of 29 µL/min/mg. For the same compound, the CL free [8] was 35 µL/min/mg, the hepatocyte CLint at 1 µM [9] was 2.3 µL/min/1e6 cells and the CL free [11] was 3.3 µL/min.
